Source: ChEMBL document CHEMBL1129043, “Preparation of phenolic paclitaxel metabolites” (J Med Chem, 1996)

Experiment: Ratio of ED50 for cytotoxicity against B16 melanoma to paclitaxel
Details: mouse

CC(=O)O[C@H]1C(=O)[C@@]2(C)[C@H]([C@H](OC(=O)c3cccc(O)c3)[C@]3(O)C[C@H](OC(=O)[C@H](O)[C@@H](NC(=O)c4ccccc4)c4ccccc4)C(C)=C1C3(C)C)[C@]1(OC(C)=O)CO[C@@H]1C[C@@H]2O
Ratio: > 20
